Reference: US9365522B2, “Pyrazole amide derivative” (AMGEN INC., priority 2015, dated 2016)

Molecular target: T1, human RORγ-LBD (Homo sapiens, UniProt P51449)
T1 construct: made in house; host or cells: E. coli (BL-21)
T1 sequence (P51449 262-518): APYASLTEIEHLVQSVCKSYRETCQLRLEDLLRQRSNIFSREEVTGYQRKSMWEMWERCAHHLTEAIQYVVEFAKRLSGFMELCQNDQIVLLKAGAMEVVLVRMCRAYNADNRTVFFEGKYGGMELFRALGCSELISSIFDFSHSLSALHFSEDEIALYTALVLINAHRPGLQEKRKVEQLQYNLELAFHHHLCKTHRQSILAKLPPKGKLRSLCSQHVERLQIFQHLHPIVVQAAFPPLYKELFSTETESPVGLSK
Test: ROR gamma coactivator peptide recruitment Alphascreen assay (RORγ-LBD binding to GRIP1 coactivator peptide)
Format: biochemical
Details: 5 nM human RORγ-LBD, 30 nM 7-β-hydroxycholesterol, 50 nM biotinylated GRIP1 coactivator peptide, overnight incubation at room temperature; read-out: result (pIC50, RORγ coactivator peptide recruitment Alphascreen assay) (converted)
Excerpt: Alphascreen™ is a bead-based amplified homogenous luminescent proximity assay that can be used for measuring the effect of compounds on protein-protein interactions. When biological interactions bring donor and acceptor beads into close proximity, reactive oxygen, generated upon laser excitation of the donor beads, initiates a luminescence/fluorescence cascade in the acceptor beads that leads to a highly amplified signal that can be measured as light in the 520-620 nm range. When the acceptor and donor beads are not in proximity, the reactive oxygen decays and only a very low background signal is generated.
An in vitro assay to assess inhibition of RORγ binding to the coactivator GRIP1 was established using Alphascreen™ technology. The interaction between nuclear receptors (NR) and coactivator proteins is a key step in signal transduction from the receptor to the transcriptional machinery and can be measured in vitro using only the ligand binding domain of the nuclear receptor and a peptide containing a coactivator protein LXXLL nuclear receptor binding motif
For the RORγ construct used in the coactivator recruitment assay, nucleotides corresponding to the ligand binding domain (LBD) of wild type human RORγ (amino acids 262-518 of Genbank Accession No. NM_005060.3) were cloned into the pET24 expression vector (Novagen), downstream of in-frame N-terminal 6×His and Flag tag sequences. Recombinant 6×His:Flag-tagged human RORγ-LBD protein was expressed in E. coli (BL-21) and purified by affinity chromatography on a nickel Sepharose column, followed by anion exchange chromatography.
A 4× assay mixture of 6×His:Flag-tagged human RORγ-LBD with the agonist ligand 7-β-hydroxycholesterol was prepared in assay buffer (50 mM HEPES pH 7.4, BSA 0.05%, 150 mM NaCl, 5 mM MgCl2, 1 mM DTT, 0.01% Tween-20). For control wells a 4× mixture of 6×His:Flag-tagged human ROR gamma LBD alone was also prepared.
A 4× stock of biotinylated coactivator peptide containing the LXXLL motif from GRIP1 (Biotin-[…]) was prepared in assay buffer.
A 4×detection mixture of nickel chelate Alphascreen™ acceptor beads (PerkinElmer) and streptavidin Alphascreen™ donor beads (PerkinElmer) was prepared in assay buffer.
Compounds to be tested were arranged in a pre-dose 384-well mother plate serially diluted 1 in 2 over 22 columns, in 100% DMSO, at 40× the final test concentration, from a high concentration of 4 mM. DMSO with no compound was placed in control columns. The compounds were robotically dispensed directly into assay plates containing assay buffer to a 4× final test concentration.
Following compound addition, the 6×His:Flag-tagged human RORγ-LBD plus 7-β-hydroxycholesterol assay mixture, biotinylated coactivator peptide and detection mixture were added. Final assay conditions were 5 nM 6×His:Flag-tagged human RORγ-LBD, 30 nM 7-β-hydroxycholesterol, 50 nM biotinylated coactivator peptide, 2.5 ug/ml nickel acceptor beads and 10 ug/ml streptavidin donor beads. The final concentration of DMSO in the assay was 2.5%.
After overnight incubation at room temperature plates were read on and Envision™ plate reader (PerkinElmer).
Data was plotted and pIC50 values were calculated using the Genedata Screener™ data analysis suite (Genedata).

| SMILES | IC50 |
| --- | --- |
| C[C@]1(C(=O)O)CC[C@H](n2ncc(C(=O)N(CC(=O)c3c(Cl)cncc3Cl)CC3CCCC3)c2C(F)(F)F)CC1 [Example 592, trans-4-(4-((cyclopentylmethyl)(2-(3,5-dichloro-4-pyridinyl)-2-oxoethyl)carbamoyl)-5-(trifluoromethyl)-1H-pyrazol-1-yl)-1-methylcyclohexanecarboxylic acid] | 6.76 nM |
| O=C(CN(C(=O)c1cnn([C@H]2CC[C@@H](C(=O)O)CC2)c1C(F)(F)F)[C@@H]1CCC12CCC2)c1c(Cl)cccc1Cl [Example 640, cis-4-(4-((2-(2,6-dichlorophenyl)-2-oxoethyl)((1R)-spiro[3.3]hept-1-yl)carbamoyl)-5-(trifluoromethyl)-1H-pyrazol-1-yl)cyclohexanecarboxylic acid] | 776 nM |
| CC1(C)CC(CN(CC(=O)c2c(F)cccc2F)C(=O)c2cnn([C@H]3CC[C@](C)(C(=O)O)CC3)c2C(F)(F)F)C1 [Example 598, trans-4-(4-((2-(2,6-difluorophenyl)-2-oxoethyl)((3,3-dimethylcyclobutyl)methyl)carbamoyl)-5-(trifluoromethyl)-1H-pyrazol-1-yl)-1-methylcyclohexanecarboxylic acid] | 115 nM |
| O=C(CN(CC1(F)CCCC1)C(=O)c1cnn(C2CCC(C(=O)O)CC2)c1C(F)(F)F)c1c(Cl)cccc1Cl (stereo in doubt) [Example 603, cis-4-(4-((2-(2,6-dichlorophenyl)-2-oxoethyl)((1-fluorocyclopentyl)methyl)carbamoyl)-5-(trifluoromethyl)-1H-pyrazol-1-yl)cyclohexanecarboxylic acid] | 49 nM |
| CC(C)(C)CN(CCc1c(Cl)cncc1Cl)C(=O)c1cnn([C@H]2CC[C@H](C(=O)O)CC2)c1C(F)(F)F [Example 547] | 19.5 nM |
| O=C(CN(Cc1ccc(F)cc1)C(=O)c1cnn([C@H]2CC[C@H](C(=O)O)CC2)c1C(F)(F)F)c1c(Cl)cnc2ccccc12 [Example 539, trans-4-(4-((2-(3-chloro-4-quinolinyl)-2-oxoethyl)(4-fluorobenzyl)carbamoyl)-5-(trifluoromethyl)-1H-pyrazol-1-yl)cyclohexanecarboxylic acid] | 89.1 nM |
| CC(C)[C@@H]1C[C@H](Cc2c(Cl)cncc2Cl)N(C(=O)c2cnn([C@H]3CC[C@](C)(C(=O)O)CC3)c2C(F)(F)F)C1 (single isomer, unassigned) [Example 701] | 9.33 nM |
| C[C@@H]1C[C@H](n2ncc(C(=O)N(CC(=O)c3c(Cl)cccc3Cl)CC3CC(C)(C)C3)c2C(F)(F)F)CC[C@@H]1C(=O)O [Example 683, (1S,2R,4R)-4-(4-((2-(2,6-dichlorophenyl)-2-oxoethyl)((3,3-dimethylcyclobutyl)methyl)carbamoyl)-5-(trifluoromethyl)-1H-pyrazol-1-yl)-2-methylcyclohexanecarboxylic acid] | 8.91 nM |
| CC1(C)CC[C@H](CN(CC(=O)c2c(Cl)cncc2Cl)C(=O)c2cnn([C@H]3CC[C@](C)(C(=O)O)CC3)c2C(F)(F)F)O1 [Example 674, trans-4-(4-((2-(3,5-dichloro-4-pyridinyl)-2-oxoethyl)(((2S)-5,5-dimethyltetrahydro-2-furanyl)methyl)carbamoyl)-5-(trifluoromethyl)-1H-pyrazol-1-yl)-1-methylcyclohexanecarboxylic acid] | 17.8 nM |
| CC1(C)[C@@H]2C[C@H](N(CC(=O)c3c(F)cccc3Cl)C(=O)c3cnn([C@H]4CC[C@](C)(C(=O)O)CC4)c3C(F)(F)F)C[C@@H]21 [Example 658, trans-4-(4-((2-(2-chloro-6-fluorophenyl)-2-oxoethyl)((1R,3r,5S)-6,6-dimethylbicyclo[3.1.0]hex-3-yl)carbamoyl)-5-(trifluoromethyl)-1H-pyrazol-1-yl)-1-methylcyclohexanecarboxylic acid] | 1.95 nM |
| O=C(c1cnn([C@H]2CC[C@H](C(=O)O)CC2)c1C(F)(F)F)N(CCc1ccc(Cl)cc1Cl)Cc1ccc(Cl)cc1 [Example 504, trans-4-(4-((4-chlorobenzyl)(2-(2,4-dichlorophenyl)ethyl)carbamoyl)-5-(trifluoromethyl)-1H-pyrazol-1-yl)cyclohexanecarboxylic acid] | 6.92 nM |
| C[C@@H]1C[C@H](n2ncc(C(=O)N(CC(=O)c3c(Cl)cncc3Cl)C[C@]34CC[C@H](CC3)O4)c2C(F)(F)F)CC[C@H]1C(=O)O [Example 880, (1R,2R,4R)-4-(4-((2-(3,5-dichloro-4-pyridinyl)-2-oxoethyl)((1s,4s)-7-oxabicyclo[2.2.1]hept-1-ylmethyl)carbamoyl)-5-(trifluoromethyl)-1H-pyrazol-1-yl)-2-methylcyclohexanecarboxylic acid] | 16.2 nM |
| CC(C)(C)CN(CC(=O)c1c(Cl)cnc(Cl)c1Cl)C(=O)c1cnn([C@H]2CC[C@](C)(C(=O)O)CC2)c1C(F)(F)F [Example 697, trans-4-(4-((2,2-dimethylpropyl)(2-oxo-2-(2,3,5-trichloro-4-pyridinyl)ethyl)carbamoyl)-5-(trifluoromethyl)-1H-pyrazol-1-yl)-1-methylcyclohexanecarboxylic acid] | 12.9 nM |
| CC1(CN(CC(=O)c2c(Cl)cc(F)cc2Cl)C(=O)c2cnn([C@H]3CC[C@](C)(C(=O)O)CC3)c2C(F)(F)F)CCCC1 [Example 671, trans-4-(4-((2-(2,6-dichloro-4-fluorophenyl)-2-oxoethyl)((1-methylcyclopentyl)methyl)carbamoyl)-5-(trifluoromethyl)-1H-pyrazol-1-yl)-1-methylcyclohexanecarboxylic acid] | 0.871 nM |
| Cc1cc(C)c(C(=O)CN(CC(C)(C)C)C(=O)c2cnn([C@H]3CC[C@](C)(C(=O)O)CC3)c2C(F)(F)F)c(Cl)n1 [Example 693, trans-4-(4-((2-(2-chloro-4,6-dimethyl-3-pyridinyl)-2-oxoethyl)(2,2-dimethylpropyl)carbamoyl)-5-(trifluoromethyl)-1H-pyrazol-1-yl)-1-methylcyclohexanecarboxylic acid] | 43.7 nM |
| CC(C)(C)C#CCN(CCc1c(Cl)cncc1Cl)C(=O)c1cnn([C@H]2CC[C@H](C(=O)O)CC2)c1C(F)(F)F [Example 548, trans-4-(4-((2-(3,5-dichloro-4-pyridinyl)ethyl)(4,4-dimethyl-2-pentyn-1-yl)carbamoyl)-5-(trifluoromethyl)-1H-pyrazol-1-yl)cyclohexanecarboxylic acid] | 11.7 nM |
| C[C@H]1C[C@H](n2ncc(C(=O)N(CC(=O)c3c(Cl)cncc3Cl)CC(C)(C)C(F)(F)F)c2C(F)(F)F)CC[C@H]1C(=O)O [Example 875, (1R,2S,4R)-4-(4-((2-(3,5-dichloro-4-pyridinyl)-2-oxoethyl)(3,3,3-trifluoro-2,2-dimethylpropyl)carbamoyl)-5-(trifluoromethyl)-1H-pyrazol-1-yl)-2-methylcyclohexanecarboxylic acid] | 11.7 nM |
| Cc1cc(Cl)c(C(=O)CN(CC2CCC(C)(C)CC2)C(=O)c2cnn([C@H]3CC[C@@H](C(=O)O)CC3)c2C(F)(F)F)c(Cl)n1 [Example 833, cis-4-(4-((2-(2,4-dichloro-6-methyl-3-pyridinyl)-2-oxoethyl)((4,4-dimethylcyclohexyl)methyl)carbamoyl)-5-(trifluoromethyl)-1H-pyrazol-1-yl)cyclohexanecarboxylic acid] | 5.89 nM |
| CC(C)(C)CN(CC(=O)c1c(Cl)cncc1Cl)C(=O)c1cnn([C@H]2CC[C@](C)(CC(=O)O)CC2)c1C(F)(F)F [Example 791, (trans-4-(4-((2-(3,5-dichloro-4-pyridinyl)-2-oxoethyl)(2,2-dimethylpropyl)carbamoyl)-5-(trifluoromethyl)-1H-pyrazol-1-yl)-1-methylcyclohexyl)acetic acid] | 5.25 nM |
